Laboratory results published in PubChem BioAssay (NCI).
Values joined by “and” are separate entries in the source; they are usually repeats but may differ in a detail not shown here. Equal entries are not always repeated.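 These data come from cells grown in 96-well plates and exposed to compound for 48 hours at five concentrations. Abbreviation: GI50, concentration required for 50% inhibition of growth. At the TGI there is no net growth.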

Assays:
Experiment in all cases: inhibition of tumour cell growth, NCI panel, 48 h
SK-MEL-2 melanoma = system: SK-MEL-2 melanoma
NCI-H23 lung = system: NCI-H23 lung
TK-10 renal = system: TK-10 renal
786-0 renal = system: 786-0 renal
EKVX NSCLC = system: EKVX NSCLC
SF-295 CNS = system: SF-295 CNS
CCRF-CEM leukemia = system: CCRF-CEM leukemia
MDA-MB-231 breast = system: MDA-MB-231 breast
RXF 393 renal = system: RXF 393 renal
MCF7 breast = system: MCF7 breast

Compound	TGI (SK-MEL-2 melanoma) [µM]	TGI (NCI-H23 lung) [µM]	TGI (TK-10 renal) [µM]	TGI (786-0 renal) [µM]	TGI (EKVX NSCLC) [µM]	TGI (SF-295 CNS)	TGI (CCRF-CEM leukemia) [µM]	TGI (MDA-MB-231 breast) [µM]	TGI (RXF 393 renal) [µM]	TGI (MCF7 breast) [µM]	GI50 (SK-MEL-2 melanoma) [µM]	GI50 (NCI-H23 lung) [µM]	GI50 (MDA-MB-231 breast) [µM]	GI50 (TK-10 renal) [µM]	GI50 (RXF 393 renal) [µM]	GI50 (MCF7 breast) [µM]	GI50 (786-0 renal) [µM]	GI50 (SF-295 CNS) [µM]	GI50 (CCRF-CEM leukemia) [µM]	GI50 (EKVX NSCLC) [µM]
O=c1[nH]nc(-c2ccccc2)c(-c2ccccc2)c1-n1nc(-c2ccccc2)c2ccccc2c1=O	> 100	> 100	> 100	> 100	> 100	> 100 µM	> 100	–	–	–	–	–	–	–	–	–	–	–	–	–
Nc1nc2nc3c(nc2c(=O)[nH]1)CN(c1ccc(C(=O)O)cc1)C3=O	> 100	> 100	> 100	> 100	> 100	> 100 µM	–	> 100	> 100	> 100	–	–	–	–	–	–	–	–	–	–
O=C(c1ccccc1)c1nnn(Cc2cccc(Cl)c2)c1C(=O)c1ccccc1	> 100	> 100	> 100	> 100	> 100	> 100 µM	> 100	–	> 100	–	–	–	–	–	–	–	–	–	–	–
CC[C@]1(O)C[C@@H]2CN(Cc3c([nH]c4ccccc34)[C@@](C(=O)OC)(c3cc4c(cc3OC)N(C)[C@H]3[C@@](O)(C(=O)OC)[C@H](OC(C)=O)[C@]5(CC)[C@@H]6C[C@@H]6CN6CC[C@]43[C@@H]65)C2)C1	> 4.38	> 4.38	> 4.38	> 4.38	–	> 4.38 µM	> 4.38	> 2.61	> 4.38	> 4.38	0.033	0.195	0.0761	> 3.69	0.111	0.0181	0.713	0.137	0.0369	–
Cc1ccc(S(=O)(=O)NCCCN(CCCNS(=O)(=O)c2ccc(C)cc2)S(=O)(=O)c2ccc(C)cc2)cc1	–	> 100	> 100	> 100	–	> 100 µM	> 100	–	> 100	–	–	–	–	–	–	–	–	–	–	–
CC(C)Oc1cc(OCC(=O)O)cc(C(=O)N(CCC(N)=O)C(=O)Nc2ccc(C(=O)O)cc2OC(C)C)c1	> 100	> 100	> 100	> 100	–	> 100 µM	> 100	> 100	> 100	> 100	> 100	> 100	> 100	> 100	> 100	> 100	> 100	> 100	> 100	–
CC(C)(O)Cn1c(=O)c(Oc2ccc(F)cc2F)cc2cnc(NC3CCOCC3)nc21	> 25	> 25	> 25	> 25	–	> 25 µM	> 25	> 25	> 25	> 25	> 25	> 25	> 25	> 25	> 25	> 25	> 25	> 25	> 25	–
C=CCCc1cc(OC)ccc1CN(C)C(C)(C)CO	> 100	> 100	> 100	> 100	> 100	> 100 µM	> 100	–	> 100	–	–	–	–	–	–	–	–	–	–	–
CC(=O)NNc1nc(C)c(C(/C=C/c2ccc(/C=C/C(=N\NC(=O)c3ccncc3)c3sc(NNC(C)=O)nc3C)cc2)=N/NC(=O)c2ccncc2)s1	> 100	> 100	> 100	> 100	> 100	> 100 µM	> 100	–	> 100	–	–	–	–	–	–	–	–	–	–	–
[N-]=[N+]=Nc1ccc(S(=O)(=O)Oc2cc(OS(=O)(=O)c3ccc(N=[N+]=[N-])cc3)cc(OS(=O)(=O)c3ccc(N=[N+]=[N-])cc3)c2)cc1	> 100	> 100	> 100	> 100	> 100	> 100 µM	> 100	–	> 100	–	–	–	–	–	–	–	–	–	–	–
COC(=O)C1=C(O)C(O)=C(C(=O)OC)CC1	> 100	> 100	> 100	> 100	> 100	> 100 µM	> 100	–	35.1	–	–	–	–	–	–	–	–	–	–	–
CCc1nc(N)nc(N)c1-c1ccc(Cl)cc1	> 100	> 100	> 100	> 100	> 100	37.9 µM and > 100 µM	–	> 100	> 100	> 100	–	7.62	34.2	88.3	22.6	15.3	5.89	3.17	–	5.7
COc1ccc(CN(O)C2C(CO)OC(n3cc(I)c(=O)[nH]c3=O)C2O)cc1 (centres undefined)	> 100	> 100	> 100	> 100	> 100	> 100 µM	> 100	–	> 100	–	–	–	–	–	–	–	–	–	–	–
C=C1C(=O)OC2C1C(OC(=O)/C(=C/C)COC(C)=O)CC1(CO1)C1C(OC(=O)/C(=C/C)CO)C=C(C)C21 (centres undefined)	3.63	3.97	6.05	3.09	4.16	20.8 µM	2.13	–	2.31	–	–	–	–	–	–	–	–	–	–	–
CCS[C@H]1NC(=O)C1[C@H](C)O[Si](C)(C)C(C)(C)C (some centres undefined)	> 100	> 100	> 100	> 100	> 100	> 100 µM	–	–	> 100	–	–	–	–	–	–	–	–	–	–	–
O=C(CC(O)(c1ccccc1)c1ccc(Cl)cc1)NC(=O)c1ccccc1O (centres undefined)	22.1	26.9	41.2	44.9	68.2	26.3 µM	43.2	–	49	–	–	–	–	–	–	–	–	–	–	–
Cc1c(C(=O)/C=C/c2ccco2)[n+](=O)c2ccccc2n1[O-]	–	> 100	> 100	> 100	> 100	> 100 µM	> 100	–	> 100	–	–	–	–	–	–	–	–	–	–	–
COc1ccc(C(=O)CC2(O)C(=O)Nc3c(Cl)ccc(Cl)c32)cc1 (centres undefined)	> 44.1	> 60.6	> 100	> 100	–	14.8 µM	> 26.3	> 92.4	> 100	> 100	2.21	4.61	4.27	8.98	3.07	0.64	6.42	1.35	2.03	–
